Measurements taken from the supplement of paper PMC10307832.

Assays:
Experiment in all cases: relative viability (nuclei count vs DMSO), 5 days (fraction); higher = more cells survive
[1] = compound: O=C(NCCCNc1nc(Nc2cccc(NC(=O)N3CCCC3)c2)ncc1I)c1cccs1 [BX 795] + COc1cccc2cc(-c3nc([C@H]4CC[C@H](C(=O)O)CC4)n4ncnc(N)c34)[nH]c12 [OSI-027] (partner 0.5 µM)
How it was run: (§1)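 Nuclei were stained with Hoechst during a one-step fixation (final 0.05% Triton X-100, 1% formaldehyde, 1 ug/ml Hoechst) carried out 5 days after dosing, then counted on 4× images. The cells, lung cancer lines in 1536-well plates, had been dosed by pin tool the day after seeding with one drug alone or a fixed anchor-drug dose plus five library-drug doses (not always all listed) in √10 steps. Relative viability is the nuclei count in treated wells divided by that in vehicle wells, and each value is the median of duplicate plates.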

[2] = compound: O=C(NCCCNc1nc(Nc2cccc(NC(=O)N3CCCC3)c2)ncc1I)c1cccs1 [BX 795] + CS(=O)(=O)CCNCc1ccc(-c2ccc3ncnc(Nc4ccc(OCc5cccc(F)c5)c(Cl)c4)c3c2)o1 [Lapatinib] (partner 2 µM)
How it was run: as §1

[3] = compound: O=C(NCCCNc1nc(Nc2cccc(NC(=O)N3CCCC3)c2)ncc1I)c1cccs1 [BX 795] + C[C@]1(O)C[C@@H](c2nc(-c3ccc4ccc(-c5ccccc5)nc4c3)c3c(N)nccn32)C1 [Linsitinib] (partner 1 µM)
How it was run: as §1

[4] = compound: O=C(NCCCNc1nc(Nc2cccc(NC(=O)N3CCCC3)c2)ncc1I)c1cccs1 [BX 795] + Cc1nc(Nc2ncc(C(=O)Nc3c(C)cccc3Cl)s2)cc(N2CCN(CCO)CC2)n1 [Dasatinib] (partner 0.075 µM)
How it was run: as §1

[5] = compound: O=C(NCCCNc1nc(Nc2cccc(NC(=O)N3CCCC3)c2)ncc1I)c1cccs1 [BX 795] + NC(=O)Nc1cc(-c2cccc(F)c2)sc1C(=O)N[C@H]1CCCNC1 [AZD7762] (partner 0.2 µM)
How it was run: as §1

Cell Line | relative viability ([1]; first compound 0.04 µM) | relative viability ([1]; first compound 0.1265 µM) | relative viability ([1]; first compound 0.4 µM) | relative viability ([1]; first compound 1.265 µM) | relative viability ([2]; first compound 0.04 µM) | relative viability ([2]; first compound 0.1265 µM) | relative viability ([2]; first compound 0.4 µM) | relative viability ([2]; first compound 1.265 µM) | relative viability ([3]; first compound 0.04 µM) | relative viability ([3]; first compound 0.1265 µM) | relative viability ([3]; first compound 0.4 µM) | relative viability ([3]; first compound 1.265 µM) | relative viability ([4]; first compound 0.04 µM) | relative viability ([4]; first compound 0.1265 µM) | relative viability ([4]; first compound 0.4 µM) | relative viability ([4]; first compound 1.265 µM) | relative viability ([5]; first compound 0.04 µM) | relative viability ([5]; first compound 0.1265 µM) | relative viability ([5]; first compound 0.4 µM) | relative viability ([5]; first compound 1.265 µM)
BEN | 0.264 | 0.297 | 0.257 | 0.26 | 0.663 | 0.841 | 0.607 | 0.672 | 0.996 | 0.944 | 0.842 | 0.864 | 0.334 | 0.315 | 0.367 | 0.299 | 0.659 | 0.653 | 0.587 | 0.647
NCI-H1993 | 0.528 | 0.537 | 0.531 | 0.532 | 0.848 | 0.786 | 0.79 | 0.658 | 0.628 | 0.732 | 0.713 | 0.696 | 0.454 | 0.56 | 0.472 | 0.525 | 0.759 | 0.795 | 0.589 | 0.809
EKVX | 0.657 | 0.649 | 0.63 | 0.603 | 0.248 | 0.367 | 0.243 | 0.208 | 1.1 | 1.21 | 0.833 | 0.839 | 0.637 | 0.295 | 0.539 | 0.508 | 0.67 | 0.805 | 0.671 | 0.645
A-427 | 0.514 | 0.476 | 0.51 | 0.299 | 0.842 | 1 | 1.06 | 0.886 | 1.17 | 1.13 | 1.15 | 0.982 | 0.796 | 0.611 | 0.709 | 0.545 | 0.774 | 0.843 | 0.694 | 0.647
A549 |  |  |  |  | 0.999 | 0.88 | 1 | 0.146 | 0.579 | 0.646 | 0.574 | 0.552 |  |  |  |  |  |  |  | 
COR-L23 | 0.843 | 0.769 | 0.82 | 0.501 | 1.14 | 1.17 | 0.884 | 0.663 | 0.909 | 0.827 | 0.961 | 0.4 | 0.533 | 0.496 | 0.382 | 0.298 |  |  |  | 
NCI-H1437 | 0.879 | 0.89 | 0.834 | 0.847 | 0.833 | 0.858 | 0.782 | 0.547 | 1.05 | 1.07 | 0.992 | 0.769 | 0.308 | 0.467 | 0.396 | 0.379 | 1.14 | 1.14 | 0.888 | 1.18
PC-3 [JPC-3] | 0.813 | 0.81 | 0.829 | 0.72 | 0.451 | 0.449 | 0.447 | 0.453 | 1.02 | 1.02 | 0.979 | 0.976 | 1.02 | 1.04 | 0.979 | 0.975 | 0.809 |  | 0.685 | 0.802
LCLC-97TM1 | 0.462 | 0.604 | 0.673 | 0.332 | 1.05 | 0.842 | 0.926 | 0.362 | 0.156 | 0.204 | 0.198 | 0.153 | 0.719 | 0.888 | 0.764 | 0.76 | 0.334 | 0.352 | 0.239 | 0.346
NCI-H1793 | 0.34 | 0.292 | 0.329 | 0.241 | 0.534 | 0.682 | 0.875 | 0.785 | 0.874 | 1.06 | 1.01 | 0.507 | 0.408 | 0.403 | 0.361 | 0.356 | 0.425 | 0.447 | 0.484 | 0.487
HCC-15 | 0.627 | 0.755 | 0.717 | 0.474 | 0.721 | 0.871 | 0.795 | 0.661 | 0.915 | 0.964 | 0.937 | 0.675 | 0.54 | 0.587 | 0.559 | 0.463 | 1.21 | 1.26 | 1.27 | 1.18
SK-LU-1 | 0.327 | 0.427 |  | 0.245 | 0.883 | 1.1 | 0.801 | 0.469 | 1.03 | 1.13 | 0.722 | 0.777 | 0.142 | 0.181 |  | 0.135 |  |  |  | 
NCI-H358 | 0.761 | 0.796 | 0.666 | 0.513 | 0.455 | 0.376 | 0.429 | 0.296 | 0.679 | 0.705 | 0.601 | 0.228 | 0.155 | 0.165 | 0.154 | 0.154 | 0.518 | 0.556 | 0.372 | 0.433
NCI-H1975 | 0.83 | 0.7 | 0.574 | 0.424 | 0.903 | 0.982 | 0.727 | 0.512 | 0.83 | 1.04 | 0.977 | 0.659 | 0.346 | 0.433 | 0.401 | 0.289 | 0.705 | 0.792 | 0.67 | 0.564
NCI-H1666 | 0.859 | 0.876 | 0.993 | 0.803 | 0.858 | 0.653 | 0.695 | 0.656 | 0.777 | 1.07 | 1.05 | 0.74 | 0.847 | 0.851 | 0.736 | 0.569 | 0.895 | 0.784 | 0.838 | 0.832
H3255 | 0.581 | 0.605 | 0.629 | 0.51 | 0.289 | 0.234 | 0.256 | 0.255 | 1.04 | 1.07 | 1.05 | 0.842 | 0.361 | 0.307 | 0.346 | 0.386 | 0.933 | 0.869 | 0.846 | 0.859
COR-L 105 | 0.659 | 0.665 | 0.582 | 0.466 | 0.354 | 0.334 | 0.308 | 0.293 | 1.08 | 0.768 | 0.849 | 0.447 | 0.367 | 0.357 | 0.278 | 0.255 |  |  |  | 
